The record followed here is patent EP1369415A1, “Substituted pyrrolyl compounds for the treatment of inflammation” (G.D. SEARLE & CO., priority 1996, dated 1998).

Each structure is given as a SMILES string.

One experiment relates to carrageenan foot edema. Put plainly: Rat Carrageenan Foot Pad Edema Test. The experiment is classed as in vivo, Male Sprague-Dawley rats. The following applies: @ 30mg/kg body weight; dosed orally one hour before carrageenan; foot volume three hours after injection. A general note: Carrageenan injected into the paw causes an acute inflammation.
Experiment [1] can be described thus: Analgesia (Table I; method not described). The class given is in vivo. To be noted: @ 30mg/kg body weight.
A further experiment deals with COX-1 (Homo sapiens, UniProt P23219). The experiment is classed as biochemical, human or murine.
Chain of COX-1 (P23219 24-599): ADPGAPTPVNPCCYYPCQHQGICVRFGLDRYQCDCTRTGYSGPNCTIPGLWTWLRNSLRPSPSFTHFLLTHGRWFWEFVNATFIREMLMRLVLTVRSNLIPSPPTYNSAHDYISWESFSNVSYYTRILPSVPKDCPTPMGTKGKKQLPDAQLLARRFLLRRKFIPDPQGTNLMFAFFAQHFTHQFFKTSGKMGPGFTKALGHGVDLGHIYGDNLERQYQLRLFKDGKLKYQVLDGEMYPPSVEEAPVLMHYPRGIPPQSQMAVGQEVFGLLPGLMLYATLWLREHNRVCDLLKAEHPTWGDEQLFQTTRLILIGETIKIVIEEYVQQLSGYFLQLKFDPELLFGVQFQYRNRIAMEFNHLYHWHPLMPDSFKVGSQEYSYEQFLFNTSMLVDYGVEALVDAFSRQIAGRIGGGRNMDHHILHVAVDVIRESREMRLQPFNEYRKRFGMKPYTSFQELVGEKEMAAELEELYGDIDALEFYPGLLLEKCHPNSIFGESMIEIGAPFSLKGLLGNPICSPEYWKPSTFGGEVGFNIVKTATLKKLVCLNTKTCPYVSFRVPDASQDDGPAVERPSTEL

For orientation: IC50 means the midpoint of a concentration-inhibition curve.

For the compound `CS(=O)(=O)c1ccc(-n2cccc2-c2ccc(F)cc2)cc1` [Example 8, 2-(4-Fluorophenyl)-1-[4-(methylsulfonyl)phenyl]-1H-pyrrole], the “RAT PAW EDEMA % Inhibition” value with carrageenan foot edema stood at 56%. Moreover, in experiment [1], the “ANALGESIA % Inhibition” value is listed as 47%.

`NS(=O)(=O)c1ccc(-n2cccc2-c2ccc(F)cc2)cc1` [Example 9, 4-[2-(4-Fluorophenyl)-1H-pyrrol-1-yl]benzenesulfonamide] gave an IC50 against COX-1 of 10.4 µM.
